From ChEMBL document CHEMBL6087415, “Discovery of new fungal jumonji H3K27 demethylase inhibitors for the treatment of Cryptococcus neoformans and Candida auris infections” (Eur J Med Chem, 2025)
Values after ≈ are worked out from the molar mass of the structure shown. Active and inactive are the calls of the source. The rule behind the calls is not given here.

Legend:
Cryptococcus neoformans [1] = test: Antifungal activity against Cryptococcus neoformans H99 assessed as reduction in fungal growth; format: functional
[Candida] auris [2] = Antifungal activity against Candida auris 0029 assessed as reduction in fungal growth; format: functional; details: Candidozyma auris
[Candida] auris [3] = Antifungal activity against Candida auris ATCC 15448 assessed as reduction in fungal growth; format: functional; details: Candidozyma auris
Cryptococcus neoformans [4] = test: Antifungal activity against Cryptococcus neoformans H99 assessed as reduction in fungal growth incubated for 72 hrs in presence of 20 uM Fe2+; format: functional
[Candida] auris [5] = Antifungal activity against Candida auris 0029 assessed as inhibition of cell growth at 16 microg/ml measured for 72 hrs; format: functional; details: Candidozyma auris
Cryptococcus neoformans [6] = test: Effect on sterol composition in Cryptococcus neoformans H99 assessed as other sterols content at 1 microg/ml measured after 24 hrs by GC-MS analysis (reference value: 41.47%); format: functional; details: dose 1 µg/ml
Cryptococcus neoformans [7] = test: Antibiofilm activity against Cryptococcus neoformans H99 assessed as inhibition of capsule formation at 4 microg/ml incubated for 48 hrs by laser confocal microscopic analysis; format: functional, organism-based; details: dose 4.0 µg/ml
Cryptococcus neoformans [8] = test: Effect on sterol composition in Cryptococcus neoformans H99 assessed as lanosterol content at 1 microg/ml measured after 24 hrs by GC-MS analysis; format: functional; details: dose 1 µg/ml
Cryptococcus neoformans [9] = test: Antifungal activity against Cryptococcus neoformans H99 assessed as reduction in fungal growth incubated for 72 hrs in presence of 5 uM Fe2+; format: functional
Cryptococcus neoformans [10] = test: Fungicidal activity against Cryptococcus neoformans H99; format: functional
[Candida] auris [11] = Effect on sterol composition in Candida auris 0029 assessed as ergosterol content at 1 microg/ml measured after 24 hrs by GC-MS analysis (reference value: 100 %); format: functional, Candidozyma auris; details: dose 1 µg/ml
[Candida] auris [12] = Fungicidal activity against Candida auris 0029; format: functional; details: Candidozyma auris
Cryptococcus neoformans [13] = test: Antifungal activity against Cryptococcus neoformans H99 assessed as reduction in fungal growth incubated for 72 hrs in presence of 80 uM Fe2+; format: functional
Cryptococcus neoformans [14] = test: Antifungal activity against Cryptococcus neoformans H99 assessed as reduction in fungal growth incubated for 72 hrs in presence of 10 uM Fe2+; format: functional
Cryptococcus neoformans [15] = test: Effect on sterol composition in Cryptococcus neoformans H99 assessed as ergosterol content at 1 microg/ml measured after 24 hrs by GC-MS analysis (reference value: 58.53%); format: functional; details: dose 1 µg/ml
Cryptococcus neoformans [16] = test: Effect on sterol composition in Cryptococcus neoformans H99 assessed as eburicol content at 1 microg/ml measured after 24 hrs by GC-MS analysis; format: functional; details: dose 1 µg/ml
[Candida] auris [17] = Antibiofilm activity against Candida auris 0029 assessed as inhibition of biofilm formation at 64 microg/ml incubated for 24 hrs by XTT reduction assay; format: functional; details: Candidozyma auris
Cryptococcus neoformans [18] = test: Antifungal activity against Cryptococcus neoformans H99 assessed as reduction in fungal growth incubated for 72 hrs in presence of 40 uM Fe2+; format: functional
Cryptococcus neoformans [19] = test: Antifungal activity against Cryptococcus neoformans H99 assessed as inhibition of cell growth at 16 microg/ml measured for 72 hrs; format: functional, organism-based; details: dose 16.0 µg/ml
Cryptococcus neoformans [20] = test: Antifungal activity against Cryptococcus neoformans H99 assessed as reduction in fungal growth incubated for 72 hrs in presence of 1 uM Fe2+; format: functional
Cryptococcus neoformans [21] = test: Antibiofilm activity against Cryptococcus neoformans H99 assessed as inhibition of biofilm formation at 1 microg/ml incubated for 24 hrs by XTT reduction assay; format: functional, organism-based; details: dose 1.0 µg/ml
[22] = Inhibition of Cryptococcus neoformans H99 JMJD3 by absorbance based analysis
[Candida] auris [23] = Synergistic antifungal activity against Candida auris 0029 assessed as inhibition of fungal growth incubated in presence of fluconazole; format: functional, organism-based; details: Candidozyma auris
[24] = Inhibition of Candida auris 0029 JMJD3 by absorbance based analysis; parameters: species or system Candidozyma auris
Cryptococcus neoformans [25] = test: Antibiofilm activity against Cryptococcus neoformans H99 assessed as inhibition of capsule formation at 1 microg/ml incubated for 48 hrs by laser confocal microscopic analysis; format: functional, organism-based; details: dose 1.0 µg/ml
Candida albicans = test: Synergistic antifungal activity against Candida albicans assessed as inhibition of fungal growth incubated in presence of fluconazole; format: functional, organism-based
[26] = Metabolic stability in mouse liver microsome assessed as half life; format: ADME; details: liver microsomes
Cryptococcus neoformans [27] = test: Antifungal activity against Cryptococcus neoformans H99 assessed as inhibition of cell growth at 4 microg/ml measured for 72 hrs; format: functional, organism-based; details: dose 4.0 µg/ml
Cryptococcus neoformans [28] = test: Antibiofilm activity against Cryptococcus neoformans H99 assessed as inhibition of biofilm formation upto […] microg/ml incubated for 24 hrs by XTT reduction assay; format: functional, organism-based; details: dose <= 64.0 µg/ml
[Candida] auris [29] = Antibiofilm activity against Candida auris 0029 assessed as inhibition of biofilm formation upto […] microg/ml incubated for 24 hrs by XTT reduction assay; format: functional, organism-based; details: Candidozyma auris, dose <= 64.0 µg/ml
[30] = Cytotoxicity against HUVEC cells; format: toxicity, cell-based; details: human
[31] = Metabolic stability in mouse liver microsome assessed as clearance; format: ADME; details: liver microsomes, read-out: CLH
[32] = Solubility of compound in MeOH/H2O at pH 7 by HPLC analysis; format: physicochemical
[33] = Hemolytic activity in rabbit erythrocytes assessed as hemolysis at 10 to 100 uM relative to control; format: toxicity, cell-based, Oryctolagus cuniculus, Erythrocyte; details: dose 10-100 µM, read-out: Activity

Clc1ccc(/C(=N\Nc2ccc(Cl)cn2)c2ccccn2)cc1
MIC80 (Cryptococcus neoformans [1]): 0.5 µg/mL (≈ 1.46 µM) | MIC80 ([Candida] auris [2]): 2 µg/mL (≈ 5.83 µM) | MIC80 ([Candida] auris [3]): 1 µg/mL (≈ 2.91 µM)

OC(Cn1cncn1)(Cn1cncn1)c1ccc(F)cc1F [FLUCONAZOLE]
MIC (Cryptococcus neoformans [4]): 4 µg/mL | Activity ([Candida] auris [5]; dose 16.0 µg/ml): inactive | Activity (Cryptococcus neoformans [6]): 4.97% | MIC80 (Cryptococcus neoformans [1]): 2 µg/mL (≈ 6.53 µM) | Activity (Cryptococcus neoformans [7]): inactive | Activity (Cryptococcus neoformans [8]): 4.24% | MIC (Cryptococcus neoformans [9]): 2 µg/mL | Activity (Cryptococcus neoformans [10]): inactive | Activity ([Candida] auris [11]): 100% | MIC80 ([Candida] auris [2]): > 64 µg/mL | Activity ([Candida] auris [12]): inactive | MIC (Cryptococcus neoformans [13]): 4 µg/mL | MIC (Cryptococcus neoformans [14]): 4 µg/mL | MIC80 ([Candida] auris [3]): 16 µg/mL (≈ 52.2 µM) | Activity (Cryptococcus neoformans [15]): 42.51% | Activity (Cryptococcus neoformans [16]): 48.28% | Activity ([Candida] auris [17]; dose 64.0 µg/ml): inactive | MIC (Cryptococcus neoformans [18]): 4 µg/mL | Activity (Cryptococcus neoformans [19]): Active | MIC (Cryptococcus neoformans [20]): 2 µg/mL

O=c1n(-c2ccccn2)c2ccccc2n1-c1ccc(Cl)cn1
MIC80 (Cryptococcus neoformans [1]): 64 µg/mL (≈ 198 µM) | MIC80 ([Candida] auris [2]): > 64 µg/mL | MIC80 ([Candida] auris [3]): > 64 µg/mL

Clc1ccc(N/N=C(\c2ccccc2)c2ccccn2)cc1
MIC80 (Cryptococcus neoformans [1]): 32 µg/mL (≈ 104 µM) | MIC80 ([Candida] auris [2]): > 64 µg/mL | MIC80 ([Candida] auris [3]): > 64 µg/mL

Clc1ccc(N/N=C(\c2ccc(Cl)cc2)c2ccccn2)cc1
MIC80 (Cryptococcus neoformans [1]): 32 µg/mL (≈ 93.5 µM) | MIC80 ([Candida] auris [2]): > 64 µg/mL | MIC80 ([Candida] auris [3]): > 64 µg/mL

COc1ccc(N/N=C(\c2ccccc2)c2ccccn2)nc1
MIC80 (Cryptococcus neoformans [1]): 0.5 µg/mL (≈ 1.64 µM) | MIC80 ([Candida] auris [2]): 2 µg/mL (≈ 6.57 µM) | MIC80 ([Candida] auris [3]): 0.125 µg/mL (≈ 0.411 µM)

Clc1ccc(N/N=C(/c2ccc(Cl)cc2)c2ccccn2)cc1
MIC80 (Cryptococcus neoformans [1]): 32 µg/mL (≈ 93.5 µM) | MIC80 ([Candida] auris [2]): 64 µg/mL (≈ 187 µM) | MIC80 ([Candida] auris [3]): 64 µg/mL (≈ 187 µM)

O=c1c2ccccc2c(-c2ccccn2)nn1-c1ccc(Cl)cn1
MIC80 (Cryptococcus neoformans [1]): 64 µg/mL (≈ 191 µM) | MIC80 ([Candida] auris [2]): > 64 µg/mL | MIC80 ([Candida] auris [3]): > 64 µg/mL

Clc1ccc(N/N=C(\c2ccccc2)c2ccccn2)nc1
MIC (Cryptococcus neoformans [4]): 8 µg/mL | inhibition at 16 µg/mL ([Candida] auris [5]): 100% | Activity (Cryptococcus neoformans [21]): inactive | MIC80 (Cryptococcus neoformans [1]): 0.5 µg/mL (≈ 1.62 µM) | MIC (Cryptococcus neoformans [9]): 4 µg/mL | IC50 [22]: 168 nM | MFC (Cryptococcus neoformans [10]): 16 µg/mL (≈ 51.8 µM) | Activity ([Candida] auris [23]): inactive | MIC80 ([Candida] auris [2]): 2 µg/mL (≈ 6.48 µM) | IC50 [24]: 5 nM | Activity (Cryptococcus neoformans [25]): Active | Activity (Candida albicans): inactive | half-life [26]: 34.3 min | Activity (Cryptococcus neoformans [27]): Active | MFC ([Candida] auris [12]): 256 µg/mL (≈ 829 µM) | Activity (Cryptococcus neoformans [28]): Active | Activity ([Candida] auris [29]): Active | MIC (Cryptococcus neoformans [13]): 64 µg/mL | IC50 [30]: 79 nM | MIC (Cryptococcus neoformans [14]): 8 µg/mL | MIC80 ([Candida] auris [3]): 0.125 µg/mL (≈ 0.405 µM) | CLint scaled [31]: 159 mL/min/kg | solubility [32]: 0.54 µg/mL (≈ 1.75 µM) | hemolysis at 100 µM [33]: < 3% | inhibition at 64 µg/mL ([Candida] auris [17]): 100% | MIC (Cryptococcus neoformans [18]): 64 µg/mL | MIC (Cryptococcus neoformans [20]): 1 µg/mL

Fc1ccc(N/N=C(\c2ccccc2)c2ccccn2)cc1
MIC80 (Cryptococcus neoformans [1]): 32 µg/mL (≈ 110 µM) | MIC80 ([Candida] auris [2]): 32 µg/mL (≈ 110 µM) | MIC80 ([Candida] auris [3]): 8 µg/mL (≈ 27.5 µM)
